Measured values from US20120283175A1, “ANTIBACTERIAL COMPOSITIONS” (Achaogen, Inc., priority 2009, published 2012).
Values after ≈ are worked out from the molar mass of the structure shown. Values joined by “and” are separate entries in the source; they are usually repeats but may differ in a detail not shown here. Equal entries are not always repeated. “Also recorded” adds a separate entry of the source. Where two headings read alike, the source gives them in different places.

What was measured:
Escherichia coli = assay: Checkerboard synergy assay with LpxCi-4; format: cell-based; settings: combination with LpxCi-4
Text: (§1) One classic method for assessing synergy, referred to as the checkerboard assay, is used to predict the efficacy of antibacterial agents, and is described by Scribner et. al., (Antimicrobial Agents and Chemotherapy 21(6):939-943 (1982)) and in Goodman & Gilman (The Pharmacological Basis of Therapeutics, Sixth Edition, pp. 1097-1098 (1980)). The checkerboard assay involves serial two-fold dilutions of the antibiotics individually and in combination in broth, which is then inoculated with the microorganism to be tested. After incubation, the minimum inhibitory concentration (MIC) of each drug used individually and in combination is determined (N.B., the MIC is the lowest concentration of the drug that inhibits growth in the medium). Synergism is indicated by a decrease in the MIC of each drug when used in combination. Antagonism is indicated by an increase in the MIC of either or both drugs when used in combination. Alternate methods of assessing synergy are reviewed in Greco, et al., Pharmacological Reviews 47(2):[…] (1995), incorporated herein by reference in its entirety.
(§2) Partial or full inhibition of LpxC should compromise the outer membrane and thus allow these synergizing agents to enter the cells and exert an antibacterial effect at concentrations where cells untreated with an LpxC inhibitor are unaffected. As a first step, checkerboard synergy assays for a variety of antibacterial agents were perform with several LpxC inhibitors, on several species of gram negative bacteria.
(§3) Bacterial isolates were cultivated from −70° C. frozen stocks of the indicated strains by overnight passages at 35° C. in ambient air on Mueller-Hinton agar (Beckton Dickinson, Franklin Lakes, N.J.). Minimum Inhibitory Concentrations (MICs) were determined by the broth microdilution method in accordance with the Clinical and Laboratory Standards Institute (CLSI) guidelines. In brief, organism suspensions were adjusted to a 0.5 McFarland standard to yield a final inoculum between 3×10^5 and 7×10^5 colony-forming units (CFU)/mL. Drug dilutions and inocula were made in sterile, cation adjusted Mueller-Hinton Broth (Beckton Dickinson). An inoculum volume of 100 μL was added to wells containing 100 μL of broth with 2-fold serial dilutions of drug. All inoculated microdilution trays were incubated in ambient air at 35° C. for 18-24 hours. Following incubation, the lowest concentration of the drug that prevented visible growth (OD600 nm <0.05) was recorded as the MIC.
(§4) Standard checkerboard assays were performed with a combination of the indicated agents and LpxCi-4. Table 2 provides the FICI calculated according to standard techniques.

Klebsiella pneumoniae = assay: Checkerboard synergy assay with LpxCi-4; format: cell-based; settings: combination with LpxCi-4
Text: as §1, §2, §3, §4

Pseudomonas aeruginosa = assay: Checkerboard synergy assay with LpxCi-4; format: cell-based; settings: combination with LpxCi-4 (3936); Pseudomonas aeruginosa (ATCC27853 in text)
Text: as §1, §2, §3, §4

Yersinia enterocolitica = assay: Checkerboard synergy assay with LpxCi-4; format: cell-based; settings: combination with LpxCi-4
Text: as §1, §2, §3, §4

E. coli ATCC25922 = assay: MIC by broth microdilution, wild type strain ATCC25922; format: cell-based
Description: as §3

envA+ (D21) E. coli = assay: MIC by broth microdilution, isogenic envA+ strain; format: cell-based
Description: as §3

envA1 (D22) E. coli = assay: MIC by broth microdilution, isogenic envA1 mutant strain; format: cell-based; settings: for MIC: Strain envA1 (D21); for Fold decrease in MIC (envA+/envA1): envA+ vs envA1 E. coli
Description: as §3

K. pneumo. (ATCC43816) = assay: Neutropenic thigh in vivo efficacy model (mice); design: species or system Klebsiella pneumoniae; Static Dose, LpxC cmpd / Static Dose, LpxC in combination: unit not given here
Text: (§5) The model was run essentially as described by Craig and others (see Gudmundsson et al., “Murine Thigh Infection Model,” Handbook of Animal Models of Infection, M. A. Sande and O. Zak, Eds.; London: Academic Press, 1999, pp 137-144). Briefly, mice were rendered neutropenic prior to infection with 2 doses of cyclophosphamide, and then infected intramuscularly in the thigh with inocula of 10^3-10^5 CFU of either K. pneumo. (ATCC43816) or P. aeruginosa (ATCC27853). Antibiotics or vehicle alone as a negative control were administered twice at 2 hrs and 14 hrs post-infection. The animals were kept neutropenic for the duration of the experiment in order to minimize the effect of white blood cells on the infection such that the microbiological readout measures the in vivo interaction of drugs and bacteria. At 24 hrs post-infection, thighs were harvested, homogenized, and plated to measure the number of CFUs surviving per thigh. Thighs from a subset of animals were also harvested 2 hrs post-infection to record the CFUs present just prior to the first antibiotic treatment (pre-treatment).

[1] = system: P. aeruginosa (ATCC27853); settings: for ΔLogCFU vs 24 hr / Log CFU Mean: 24 hr; for Log CFU Mean: n=5; for in vivo synergy with erythromycin: erythromycin 60 mg/kg
Text: as §5
This table focuses on the sensitive part of the LpxCi-4 dose response curve (30 mg/kg) by examining the mean log CFU at 0 or 24 hours, as well as the log change in CFU at 24 hours relative to zero hours (“ΔLogCFU vs […]”). Data is given for animals treated with vehicle, LpxCi-4 at 30 mg/kg, a second agent alone at the indicated doses or the combination of LpxCi-4 at 30 mg/kg plus the second agent at the indicated dose. The standard errors for each measurement are also given (n=5 animals/group). By comparing the observed drop in CFU of the combination with the sum of the drop in CFU associated with each of the two agents given separately, one can determine whether the combination is, in fact, synergistic in vivo.

[2] = Pharmacokinetic studies of LpxCi-4 alone or in the presence of vancomycin; format: in vivo; settings: for AUC / Cmax / Tmax / half-life: in vivo, 10 mg/kg
Description: This would result in a lower static dose for the LpxC inhibitor and apparent synergy. In order to address this, pharmacokinetic studies of LpxCi-4 either alone or in the presence of vancomycin at 220 mg/kg were performed. […] The half-life (HL_Lambda_z), time to maximum concentration (Tmax), maximal concentration (Cmax), and area under the concentration-time curve (AUC) for LpxCi-4 are provided.

[3] = strain 43816, combination agent Rifampin
[4] = first block of Table 5, mg/kg/day b.i.d.: 3936 30, Rif. 30, Azith. 50
[5] = second block of Table 5, mg/kg/day b.i.d.: 3936 30, Eryth. 60, Dapto. 3, Oxacil. 100
[6] = strain 27853, combination agent Rifampin
[7] = strain 27853, combination agent Vanco
[8] = LpxCi-4 (10 mg/kg) + vancomycin (220 mg/kg)

CO[C@@H]1[C@@H](OC(N)=O)[C@@H](O)[C@H](Oc2ccc3c(O)c(NC(=O)c4ccc(O)c(CC=C(C)C)c4)c(=O)oc3c2C)OC1(C)C [Novobiocin, novobiocin]
FICI index (Escherichia coli): ≦0.25
FICI index (Klebsiella pneumoniae): ≦0.38
FICI index (Pseudomonas aeruginosa): no effect
FICI index (Yersinia enterocolitica): ≦0.63

CC(C)(N)[C@H](NC(=O)c1ccc(C#CC#CC2CC2)cc1)C(=O)NO [LpxCi-4, (S)—N-(3-amino-1-(hydroxyamino)-3-methyl-1-oxobutan-2-yl)-4-(cyclopropylbuta-1,3-diynyl)benzamide]
MIC (E. coli ATCC25922): 0.015 µg/mL (≈ 0.0442 µM)
MIC (envA+ (D21) E. coli): 0.015 µg/mL (≈ 0.0442 µM)
MIC (envA1 (D22) E. coli): ≦0.004
Fold decrease in MIC (envA+/envA1) (envA1 (D22) E. coli): ≧4
in vivo synergy with rifampin (K. pneumo. (ATCC43816); bacterial strain ATCC43816): in vivo synergy
in vivo synergy with vancomycin (K. pneumo. (ATCC43816); bacterial strain ATCC43816): in vivo synergy
Static Dose, LpxC cmpd (K. pneumo. (ATCC43816); strain 43816, LpxC compound alone): 36 and 33
Fold Shift Static Dose (K. pneumo. (ATCC43816); [3]): 4x
Static Dose, LpxC in combination (K. pneumo. (ATCC43816); [3]): 9
Fold Shift Static Dose (K. pneumo. (ATCC43816); strain 43816, combination agent Vanco): 6.6x
Static Dose, LpxC in combination (K. pneumo. (ATCC43816); strain 43816, combination agent Vanco (440 mg/kg/day)): 5
shift in static dose (K. pneumo. (ATCC43816); with rifampin, K. pneumoniae ATCC43816): 4 fold
ΔLogCFU vs 24 hr [1, 4]: −1.57
Log CFU Mean [1, 4]: 6.17
ΔLogCFU vs 24 hr [1, 5]: −0.81
Log CFU Mean [1, 5]: 6.83
in vivo synergy with daptomycin ([1]; bacterial strain ATCC27853): does not exhibit in vivo synergy
in vivo synergy with rifampin ([1]; bacterial strain ATCC27853): in vivo synergy
in vivo synergy with vancomycin ([1]; bacterial strain ATCC27853): in vivo synergy
in vivo synergy with erythromycin ([1]; bacterial strain ATCC27853): modest in vivo synergy
in vivo synergy with erythromycin ([1]; bacterial strain ATCC27853, listed as LPxCi-4): only a very modest shift in the dose response curve
in vivo synergy with daptomycin ([1]; bacterial strain ATCC27853, listed as 3936): no measurable in vivo synergy
drop in CFU relative to vehicle ([1]; each agent at 30 mg/kg): 1.57 log
Static Dose, LpxC cmpd ([1]; strain 27853, LpxC compound alone): 60 and 42 and 50
Static Dose, LpxC in combination ([1]; strain 27853, combination agent Daptomycin): 50
Fold Shift Static Dose ([1]; strain 27853, combination agent Erythromycin): <1.5x
Static Dose, LpxC in combination ([1]; strain 27853, combination agent Erythromycin (60 mg/kg in text)): 40
Static Dose, LpxC in combination ([1]; strain 27853, combination agent Oxacillin): 50
Fold Shift Static Dose [1, 6]: 1.9x
Static Dose, LpxC in combination [1, 6]: 22
Fold Shift Static Dose [1, 7]: 2.4x
Static Dose, LpxC in combination [1, 7]: 25
shift in static dose ([1]; with rifampin, P. aeruginosa ATCC27853): 2 fold
AUC [2, 8]: 6870 ng·h/mL
Cmax [2, 8]: 2630 ng/mL
Tmax [2, 8]: 0.25 h
half-life [2, 8]: 3.27 h
AUC ([2]; LpxCi-4 (10 mg/kg) alone): 6030 ng·h/mL
Cmax ([2]; LpxCi-4 (10 mg/kg) alone): 2200 ng/mL
Tmax ([2]; LpxCi-4 (10 mg/kg) alone): 0.5 h
half-life ([2]; LpxCi-4 (10 mg/kg) alone): 2.63 h
PK / AUC of LpxCi-4 in the presence vs absence of vancomycin ([2]; vancomycin at 220 mg/kg, 220 mg/kg): not significantly affected; also recorded: essentially identical

CCCCCCCCCCNCCN[C@@]1(C)C[C@H](O[C@H]2[C@H](Oc3c4cc5cc3Oc3ccc(cc3Cl)[C@@H](O)[C@@H](NC(=O)[C@@H](CC(C)C)NC)C(=O)N[C@@H](CC(N)=O)C(=O)N[C@H]5C(=O)N[C@H]3C(=O)N[C@H](C(=O)N[C@H](C(=O)O)c5cc(O)c(CNCP(=O)(O)O)c(O)c5-c5cc3ccc5O)[C@H](O)c3ccc(c(Cl)c3)O4)O[C@H](CO)[C@@H](O)[C@@H]2O)O[C@@H](C)[C@H]1O [Telavancin, telavancin]
MIC (E. coli ATCC25922): > 128 µg/mL
MIC (envA+ (D21) E. coli): > 128 µg/mL
MIC (envA1 (D22) E. coli): 16 µg/mL (≈ 9.11 µM)
Fold decrease in MIC (envA+/envA1) (envA1 (D22) E. coli): ≧8
FICI index (Escherichia coli): no
FICI index (Klebsiella pneumoniae): ≦0.31
FICI index (Pseudomonas aeruginosa): no effect
FICI index (Yersinia enterocolitica): ≦0.5
